Experimental data taken from BindingDB's records for doi:10.1016/j.bmcl.2014.06.076 (Genentech, 2014).

biological target: L-lactate dehydrogenase A chain (Homo sapiens, UniProt P00338); assay: Inhibition of human recombinant carboxy-terminal His-tagged LDHA by UV endpoint assay

IC50 [µM]	SMILES
> 100	N#Cc1ccccc1SC1=C(O)CC(c2c(Cl)cccc2Cl)CC1=O (centres undefined)
> 100	N#Cc1ccccc1SC1=C(O)CC(c2c(Cl)cccc2Br)CC1=O (centres undefined)
> 100	O=C1CC(c2ccccc2Cl)CC(O)=C1Sc1ccccc1Cl (centres undefined)
> 100	O=C1CC(c2cccc(Cl)c2)CC(O)=C1Sc1ccccc1Cl (centres undefined)
> 100	O=C1CC(c2ccc(Cl)cc2)CC(O)=C1Sc1ccccc1Cl (centres undefined)
> 100	COc1ccc(C2CC(=O)C(Sc3ccccc3Cl)=C(O)C2)cc1 (centres undefined)
> 100	O=C1CC(c2c(F)cccc2Cl)CC(O)=C1Sc1ccccc1Cl (centres undefined)
> 100	O=C1CC(c2c(Cl)cccc2Br)CC(O)=C1Sc1ccccc1Cl (centres undefined)
> 100	O=C1CC(c2c(Cl)cccc2C(F)(F)F)CC(O)=C1Sc1ccccc1Cl (centres undefined)
> 100	O=C1CC(c2c(F)cccc2F)CC(O)=C1Sc1ccccc1Cl (centres undefined)
5.6	Cc1cc(C)c(SC2=C(O)CC(c3ccccc3)CC2=O)nc1C#N (centres undefined)
0.87	O=C1CC(c2ccccc2)CC(O)=C1Sc1ncc[nH]1 (centres undefined)
7.4	CSc1nnc(SC2=C(O)CC(c3ccccc3)CC2=O)s1 (centres undefined)
2.1	Cc1ccc2nc(SC3=C(O)CC(c4ccccc4)CC3=O)[nH]c2c1 (centres undefined)
> 100	O=C1CC(c2c(Cl)ccc(Br)c2Cl)CC(O)=C1Sc1ccccc1Cl (centres undefined)
> 100	O=C1CC(c2c(Br)cccc2Br)CC(O)=C1Sc1ccccc1Cl (centres undefined)
> 100	Cc1cccc(C)c1C1CC(=O)C(Sc2ccccc2Cl)=C(O)C1 (centres undefined)
> 100	O=C1CC(c2c(C(F)(F)F)cccc2C(F)(F)F)CC(O)=C1Sc1ccccc1Cl (centres undefined)
> 100	N#Cc1ccccc1SC1=C(O)CC(c2ccccc2Cl)CC1=O (centres undefined)
> 100	N#Cc1ccccc1SC1=C(O)CC(c2cccc(Cl)c2)CC1=O (centres undefined)
> 100	N#Cc1ccccc1SC1=C(O)CC(c2ccc(Cl)cc2)CC1=O (centres undefined)
> 100	N#Cc1ccccc1SC1=C(O)CC(c2c(Cl)cccc2C(F)(F)F)CC1=O (centres undefined)
> 100	Cc1cccc(C)c1C1CC(=O)C(Sc2ccccc2C#N)=C(O)C1 (centres undefined)
> 100	N#Cc1ccccc1SC1=C(O)CC(c2c(Br)cccc2Br)CC1=O (centres undefined)
